Measured values published in publication PMC7146288, “Microwave Assisted Synthesis of 4-Phenylquinazolin-2(1H)-one Derivatives that Inhibit Vasopressor Tonus in Rat Thoracic Aorta” (Molecules, 2020).
Entries after “also recorded” stand apart in the source; their conditions may differ.

Assays:
[1] = test system: rat thoracic aorta rings, endothelium-intact (E+); test: Vascular reactivity: vasorelaxation in endothelium-intact (E+) aortic rings pre-contracted with Phe 1 µM; parameters: species or system Male Wistar normotensive rats (Rattus norvegicus); details: for relaxation at the highest concentration: 30 μM, endothelium-intact aorta rings pre-contracted with Phe 1 µM; for IC50: Rattus norvegicus, rings pre-contracted with Phe 1 µM, cumulative 1-30 µM, mean ± SEM, read-out: IC50 vasorelaxation response in endothelium-intact (E+) aorta arterial vessels
Description: (§1) All compounds were dissolved with DMSO 100% to obtain a stock solution of 10 mM. In all experiments, the stock solution was employed to obtain a final concentration diluted in Krebs Henseleit solution (vascular reactivity assay) and DMEM supplemented with 10% FBS (cytotoxicity assay).
Male Wistar normotensive rats (Rattus norvegicus) weighing between 200 and 300 grams were supplied by the Central Animal Facility of Fluminense Federal University (NAL-UFF) (Rio de Janeiro, Brazil). The animals were kept in standard environmental conditions of temperature (22 ± 1 °C) and 12 h light/dark cycle, with free access to food (Purina, Brazil) and water. All experiments were conducted in accordance to the guidelines established by National Council for Animal Experimentation Control (CONCEA, Brazil). This study was approved by the Ethics Committee in the Use of Animals of the Fluminense Federal University (CEUA-UFF), certificate under protocol number: 795/2017.
(§2) Animals were anesthetized by isoflurane (1% mg/kg) inhalation and, after the loss of motor control, rats were euthanized by cervical dislocation. Subsequently, the thoracic aorta was dissected and cleaned of connective tissue to obtain rings 4 mm in length that were suspended in a 15 mL organ bath (Panlab four chamber organ bath, AD-Instruments, Sydney, Australia). Tissues were kept in Krebs Henseleit solution at 37 °C with the following composition (mM): NaCl 120; KCl 5.0; MgCl2 1.1; CaCl2 2.5; NaH2PO4 1.2; N-[2-hydroxyethyl] piperazine-N’-[2-ethane-sulfonic acid] (HEPES) 10; NaHCO3 15; and glucose 11, bubbled constantly with a gas mixture of 95% O2 and 5% CO2 (pH 7.4). Each arterial segment was suspended between two steel hooks connected to an isometric transducer to measure tension through a data acquisition system (PowerLab 8 and LabChart Pro, AD-Instruments, Australia). […] Functional endothelial integrity was assessed by the ability of 10 µM ACh to induce ≥70% relaxation in vessels pre-contracted with 1 µM Phe.
Values are expressed as mean ± standard error of mean (SEM). A P-value less than 0.05 was termed statistically significant. The IC50 values (defined as the concentration of the test compound that reduced 50% of the maximal contraction) were obtained by actual concentration-response curve fitting using GraphPad Prism 6.0 software (GraphPad Software, San Diego, CA). Statistical significance was determined using Bonferroni´s multiple comparison for vascular reactivity experiments and using Turkey´s multiple comparison for cytotoxicity evaluation following two-way analysis of variance (ANOVA).
Figure 3 Concentration-response curves for compounds 2a–f and control (vehicle: DMSO) in intact endothelium aortic rings pre-contracted with Phe 1 µM. Cumulative concentrations (1 µM, 3 µM, 10 µM and 30 µM) were added to the Phe contraction plateau. DMSO was employed at the same volume used to dissolve the compound stock solution (maximum final concentration at 0.3%). All data are expressed as mean ± standard error of the mean (SEM) (n = 4–5). (* P < 0.05; *** P < 0.001; **** P < 0.0001 compound vs. control).

[2] = test system: rat thoracic aorta rings, endothelium-denuded (E−); test: Vascular reactivity: vasorelaxation in endothelium-denuded (E−) aortic rings pre-contracted with Phe 1 µM; parameters: species or system Male Wistar normotensive rats (Rattus norvegicus); details: endothelium-denuded rings pre-contracted with Phe 1 µM; cumulative up to 30 µM
Description: A representative record of cumulative concentrations of compound 2f (1 μM, 3 μM, 10 μM and 30 μM) on aortic rings endothelium-intact and endothelium-denuded pre-contracted with Phe 1 μM are shown in Figure 4. Phe induced a steady tone in both preparations that were greater in endothelium denuded rings.
as §2, with “7.4).” for “7.4). Each arterial segment was suspended between two steel hooks connected to an isometric transducer to measure tension through a data acquisition system (PowerLab 8 and LabChart Pro, AD-Instruments, Australia).”
Figure 4 Concentration-response curves of compound 2f in endothelium-intact (E+) and endothelium-denuded (E−) aortic rings pre-contracted with Phe 1 µM. […] All data are expressed as mean ± standard error of the mean (SEM) (n = 4). […]

[3] = MTT cell viability (cytotoxicity) assay; format: cell-based, African Green monkey (Cercopithecus aethiops); details: African green monkey (Cercopithecus aethiops), VERO kidney cells, 48 h exposure, % of vehicle control, read-out: percentage of cell viability (living cells)
Description: as §1
(§3) A 3-[4,5-dimehyl-2-thiazolyl]-2,5-diphenyl-2H-tetrazoliumbromide (MTT) assay was employed to assess the general cytotoxicity for 4-phenylquinazolin-2(1H)-one derivatives. […]
(§4) The MTT cell viability assay investigates the number of viable cells by measuring the mitochondrial-dependent reduction of water-soluble tetrazolium into an insoluble formazan product. The absorbance obtained is directly proportional to the activity of functional mitochondria and represents the number of viable cells. […] Absorbance was measured with a plate reader (SpectraMax 190, CA, USA) at a wavelength of 550 nm and expressed as a percentage of the control (vehicle).
(§5) Figure 5 Cell viability assessed by the MTT method on the VERO cell line after 48 h of exposure to the compounds. […] All data are expressed as mean ± standard error of the mean (SEM) (n = 22–25). […]

VERO cells = test: MTT cell viability (cytotoxicity) assay; format: cell-based, African Green monkey (Cercopithecus aethiops); details: 30 µM, 48 h exposure
Description: as §1, §3, §4, §5

| Structure (SMILES) | IC50 [1] [µM] | relaxation at the highest concentration [1] | vasorelaxation in the absence of the endothelium [2] | viability at 48 h, 30 µM [3] [%] | cytotoxicity according to ISO 10993: 5 (viability below 70% = cytotoxic) (VERO cells) |
| --- | --- | --- | --- | --- | --- |
| Cn1c(=O)nc(-c2ccccc2)c2cc(Cl)ccc21 [Compound 2f] | 3.41 ± 0.65 | around 90% | abolished |  |  |
| O=c1nc(-c2ccccc2)c2ccccc2[nH]1 [Compound 2a] | 39.7 ± 6.77 |  |  |  |  |
| O=c1nc(-c2ccccc2)c2cc([N+](=O)[O-])ccc2[nH]1 [Compound 2b] | 16.4 ± 3.5 |  |  | 69 | cytotoxic; also recorded: induced cytotoxicity |

Further lines, with some results ahead:

| IC50 [1] [µM] | Structure (SMILES) | relaxation at the highest concentration [1] | vasorelaxation in the absence of the endothelium [2] | viability at 48 h, 30 µM [3] [%] | cytotoxicity according to ISO 10993: 5 (viability below 70% = cytotoxic) (VERO cells) |
| --- | --- | --- | --- | --- | --- |
| 4.31 ± 0.9 | Cc1ccccc1-c1nc(=O)[nH]c2ccc(Cl)cc12 [Compound 2c] | around 90% |  |  |  |
| 4.94 ± 1.21 | O=c1nc(-c2ccccc2)c2cc(Br)ccc2[nH]1 [Compound 2e] | around 90% |  |  |  |
| 26.5 ± 8.98 | O=c1nc(-c2ccccc2F)c2cc(Cl)ccc2[nH]1 [Compound 2d] |  |  |  |  |
